US20260297042A1, “BIARYLAMIDE DERIVATIVES AND THEIR USE AS PKMYT1 INHIBITORS” (CANCER RESEARCH TECHNOLOGY LIMITED, priority 2023, published 2026)
Where a name gives a salt, the structure may show the parent alone.

Columns and labels:
Human PKMYT1 = target: T1, Human PKMYT1 (Homo sapiens, UniProt Q99640); assay: PKMYT1 biochemical ADP-Glo enzymatic assay; settings: ADP-Glo
T1 construct: Human PKMYT1 75-362 was cloned as a TEV cleavable 6xHis fusion; 6xHis (TEV cleavable) (cleaved yes); made in house; host or cells: bacterial cells
T1 sequence (Q99640 75-362): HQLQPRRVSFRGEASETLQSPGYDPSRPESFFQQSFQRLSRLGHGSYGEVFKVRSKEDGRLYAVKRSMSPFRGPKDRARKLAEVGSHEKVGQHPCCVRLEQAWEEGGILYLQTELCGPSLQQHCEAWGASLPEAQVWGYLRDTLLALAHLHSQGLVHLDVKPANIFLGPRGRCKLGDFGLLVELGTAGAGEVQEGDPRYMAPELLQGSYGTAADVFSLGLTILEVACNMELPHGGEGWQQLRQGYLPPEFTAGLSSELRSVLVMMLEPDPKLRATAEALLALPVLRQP
How it was run: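 IC50 derived from luminescence (ADP-Glo Max) after PKMYT1 kinase domain, 15 nM, turned over 500 µM ATP for 60 min at 26 °C. Buffer contained 10 mM MgCl2, 1 mM EGTA and 0.01% Brij-35 at pH 7.5.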

WEE1 = target: T2, WEE1 (Homo sapiens, UniProt P30291); assay: Selectivity versus WEE1 assay (ADP-Glo enzymatic assay); type: biochemical; settings: for IC50: ADP-Glo; for PKMYT1 vs. WEE1 selectivity: fold difference in selectivity for PKMYT1 over WEE1
T2 construct: purchased Thermo Fisher PR7373A
Procedure: Selectivity versus WEE1 assay: Selectivity was established using the same format as outlined for PKMYT1. After dosing of compounds via the Echo acoustic dispenser—as described above—WEE1 (Thermo Fisher PR7373A) was added to each well at a final concentration of 15 nM in a buffer of 50 mM HEPES (pH 7.5), 10 mM MgCl2, 1 mM EGTA, 0.01% Brij-35, 1% DMSO. 30 µM ATP was added to start the reaction with the final assay volume being 4 μl. The plate was then incubated for 60 minutes at 26° C. before the addition of 4 μl of ADP-Glo Reagent. Following a further 60 minute incubation the assay signal was developed by the addition of 8 μl ADP-Glo Detection Reagent. After 60 minutes the luminescence signal was read on a PHERAStar FS microplate reader (BMG Labtech).
Data analysis: Data was captured and analysed within the Dotmatics Studies software module where dose response curves were generated and IC50 values determined. Acceptance and verification of data followed strict in-house business rules which are summarised as follows. […] Technical and biological replicates of each compound are routinely tested and replicate IC50 values must fall within 3-fold of each other with dose response curves showing ‘goodness of fit’ r2 values >0.9. Failure to meet any of these defined criteria result in rejection of data.

[1] = PKMYT1 kinase domain 15 nM, banded values
[2] = 15 nM PKMYT1 kinase domain, 500 µM ATP, 60 minutes at 26° C., banded
[3] = 15 nM WEE1, 60 minutes at 26° C., banded
[4] = banded, ">N" = at least in this band but could be higher

T2 sequence (P30291 whole entry): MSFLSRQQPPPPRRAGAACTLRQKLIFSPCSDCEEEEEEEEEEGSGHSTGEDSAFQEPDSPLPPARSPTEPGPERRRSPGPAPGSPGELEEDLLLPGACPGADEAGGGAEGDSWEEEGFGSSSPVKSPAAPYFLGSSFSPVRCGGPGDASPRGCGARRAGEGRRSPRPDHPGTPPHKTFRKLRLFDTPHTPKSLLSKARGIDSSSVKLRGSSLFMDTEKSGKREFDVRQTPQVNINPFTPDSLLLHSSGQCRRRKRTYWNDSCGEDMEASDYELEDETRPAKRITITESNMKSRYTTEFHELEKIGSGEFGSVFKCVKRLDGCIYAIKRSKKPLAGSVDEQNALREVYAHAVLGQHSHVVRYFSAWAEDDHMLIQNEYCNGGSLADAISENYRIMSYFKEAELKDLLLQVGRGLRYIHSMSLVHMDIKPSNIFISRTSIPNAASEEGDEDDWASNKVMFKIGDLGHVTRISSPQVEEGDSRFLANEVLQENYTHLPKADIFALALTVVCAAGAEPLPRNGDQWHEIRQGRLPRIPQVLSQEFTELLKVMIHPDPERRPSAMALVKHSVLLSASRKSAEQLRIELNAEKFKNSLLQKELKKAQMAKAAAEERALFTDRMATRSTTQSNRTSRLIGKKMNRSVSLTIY

SMILES	IC50 (Human PKMYT1; [1]) [nM]	IC50 (WEE1; WEE1 15 nM, banded values) [nM]	PKMYT1 vs. WEE1 selectivity (WEE1; banded)	IC50 (Human PKMYT1; [2]) [nM]	IC50 (WEE1; [3]) [nM]	PKMYT1 vs. WEE1 selectivity (WEE1; [4])
Cc1ccc(O)c(C)c1NC(=O)c1cnc(Nc2ncccc2Cl)s1 [BAA-400, 2-((3-chloropyridin-2-yl)amino)-N-(3-hydroxy-2,6-dimethylphenyl)thiazole-5-carboxamide]	< 50	1000 to 11000	X (100-<1000 fold)			
Cc1ccc(O)c(C)c1NC(=O)c1cnc(Nc2nn(C)c3cccnc23)s1 [BAA-210, N-(3-Hydroxy-2,6-dimethyl-phenyl)-2-[(1-methylpyrazolo[4,3-b]pyridin-3-yl)amino]thiazole-5-carboxamide]				< 50	> 11000	Z (>5000 fold)
Cc1ccc(O)c(C)c1NC(=O)c1cnc(Nc2cnn(CC(=O)N3CCCC3)c2)s1 [BAA-527, N-(3-hydroxy-2,6-dimethylphenyl)-2-((1-(2-oxo-2-(pyrrolidin-1-yl)ethyl)-1H-pyrazol-4-yl)amino)thiazole-5-carboxamide]	50 to 1000	> 11000	W (10-<100 fold)			
Cc1ccc(O)c(C)c1NC(=O)c1cnc(NC2CCN(S(C)(=O)=O)CC2)s1 [BAA-067, N-(3-hydroxy-2,6-dimethyl-phenyl)-2-[(1-methylsulfonyl-4-piperidyl)amino]thiazole-5-carboxamide]				1000 to 11000	> 11000	>W (10-<100 fold)
CCCNC(=O)Cn1ccc(Nc2ncc(C(=O)Nc3c(C)ccc(O)c3C)s2)n1 [BAA-197]				< 50	> 11000	Y (1000-5000 fold)
Cc1ccc(O)c(C)c1NC(=O)c1cnc(Nc2ccc3cc(F)ccc3n2)s1 [BAA-288, 2-((6-fluoroquinolin-2-yl)amino)-N-(3-hydroxy-2,6-dimethylphenyl)thiazole-5-carboxamide]				50 to 1000	> 11000	X (100-<1000 fold)
Cc1ccc(O)c(C)c1NC(=O)c1cnc(Nc2nc3ccccc3s2)s1 [BAA-442, 2-(benzo[d]thiazol-2-ylamino)-N-(3-hydroxy-2,6-dimethylphenyl)thiazole-5-carboxamide]	50 to 1000	> 11000	X (100-<1000 fold)			
CCC(=O)N1CC[C@@H](n2ccc(Nc3ncc(C(=O)Nc4c(C)ccc(O)c4C)s3)n2)C1 [BAA-085]				< 50	> 11000	>Y (1000-5000 fold)
Cc1ccc(O)c(C)c1NC(=O)c1cnc(Nc2c3cnccc3nn2C)s1 [BAA-248, N-(3-hydroxy-2,6-dimethylphenyl)-2-((2-methyl-2H-pyrazolo[4,3-c]pyridin-3-yl)amino)thiazole-5-carboxamide]				< 50	1000 to 11000	X (100-<1000 fold)
Cc1ccc(O)c(C)c1NC(=O)c1cnc(Nc2cccc3ccoc23)s1 [BAA-531, 2-(benzofuran-7-ylamino)-N-(3-hydroxy-2,6-dimethylphenyl)thiazole-5-carboxamide]	50 to 1000	> 11000	Y (1000-5000 fold)			
Cc1ccc(O)c(C)c1NC(=O)c1cnc(Nc2ccn([C@@H]3CCN(C(=O)CC(F)(F)F)C3)n2)s1 [BAA-084]				50 to 1000	> 11000	>Y (1000-5000 fold)
Cc1ccc(O)c(C)c1NC(=O)c1cnc(Nc2ccn(CC(=O)NC3CCC3)n2)s1 [BAA-191]				< 50	> 11000	Y (1000-5000 fold)
Cc1ccc(O)c(C)c1NC(=O)c1cnc(Nc2ccn(CCCN3CCOCC3)n2)s1 [BAA-101]				50 to 1000	> 11000	>X (100-<1000 fold)
Cc1ccc(O)c(C)c1NC(=O)c1cnc(Nc2cnn(C)c2)s1 [BAA-536, N-(3-hydroxy-2,6-dimethylphenyl)-2-((1-methyl-1H-pyrazol-4-yl)amino)thiazole-5-carboxamide hydrochloride]	50 to 1000	1000 to 11000	X (100-<1000 fold)			
COCCn1nc(Nc2ncc(C(=O)Nc3c(C)ccc(O)c3C)s2)cc1C [BAA-255, N-(3-hydroxy-2,6-dimethylphenyl)-2-((1-(2-methoxyethyl)-5-methyl-1H-pyrazol-3-yl)amino)thiazole-5-carboxamide]				50 to 1000	> 11000	X (100-<1000 fold)
Cc1ccc(O)c(C)c1NC(=O)c1cnc(Nc2ccn(C3CCN(C(=O)OC(C)(C)C)CC3)n2)s1 [BAA-031]				50 to 1000	> 11000	>X (100-<1000 fold)
Cc1ccc(O)c(C)c1NC(=O)c1cnc(NCCCN2CCS(=O)(=O)CC2)s1 [BAA-072, 2-[3-(1,1-dioxo-1,4-thiazinan-4-yl)propylamino]-N-(3-hydroxy-2,6-dimethyl-phenyl)thiazole-5-carboxamide]				50 to 1000	> 11000	>X (100-<1000 fold)
Cc1ccc(O)c(C)c1NC(=O)c1cnc(Nc2ccc(S(=O)(=O)C(F)(F)F)cc2)s1 [BAA-285, N-(3-hydroxy-2,6-dimethylphenyl)-2-((4. ((trifluoromethyl)sulfonyl)phenyl)amino) thiazole-5-carboxamide]				1000 to 11000	> 11000	W (10-<100 fold)
Cc1ccc(O)c(C)c1NC(=O)c1cnc(Nc2nn(C)cc2C(N)=O)s1 [BAA-254, 2-((4-carbamoyl-1-methyl-1H-pyrazol-3-yl)amino)-N-(3-hydroxy-2,6-dimethylphenyl)thiazole-5-carboxamide]				50 to 1000	> 11000	Y (1000-5000 fold)
Cc1ccc(O)c(C)c1NC(=O)c1cnc(Nc2ccn(CC(=O)NCCN3CCNCC3)n2)s1 [BAA-228, N-(3-hydroxy-2,6-dimethylphenyl)-2-((1-(2-oxo-2-((2-(piperazin-1-yl)ethyl)amino)ethyl)-1H-pyrazol-3-yl)amino)thiazole-5-carboxamide]				< 50	> 11000	X (100-<1000 fold)
Cc1ccc(O)c(C)c1NC(=O)c1cnc(Nc2cccc3c2OCCO3)s1 [BAA-529, 2-((2,3-dihydrobenzo[b][1,4]dioxin-5-yl)amino)-N-(3-hydroxy-2,6-dimethylphenyl)thiazole-5-carboxamide. TFA salt]	50 to 1000	> 11000	X (100-<1000 fold)			
Cc1ccc(O)c(C)c1NC(=O)c1cnc(NCCCN2CCN(C(=O)OC(C)(C)C)CC2)s1 [BAA-073, tert-butyl 4-[3-[[5-[(3-hydroxy-2,6-dimethyl-phenyl)carbamoyl]thiazol-2-yl]amino]propyl]piperazine-1-carboxylate]				50 to 1000	> 11000	>X (100-<1000 fold)
Cc1ccc(O)c(C)c1NC(=O)c1cnc(Nc2ncco2)s1 [BAA-027, N-(3-hydroxy-2,6-dimethyl-phenyl)-2-(oxazol-2-ylamino)thiazole-5-carboxamide]				50 to 1000	> 11000	X (100-<1000 fold)
CC(=O)N1CCN(C(=O)Cn2ccc(Nc3ncc(C(=O)Nc4c(C)ccc(O)c4C)s3)n2)CC1 [BAA-145]				< 50	> 11000	Y (1000-5000 fold)
Cc1ccc(O)c(C)c1NC(=O)c1cnc(Nc2ccn(CC(=O)N3CCCN(C)CC3)n2)s1 [BAA-171]				< 50	> 11000	X (100-<1000 fold)
Cc1ccc(O)c(C)c1NC(=O)c1cnc(Nc2cccc(C(=O)N3CC4CCC3C4)c2)s1 (stereo not drawn) [BAA-289, 2-((3-(2-azabicyclo[2.2.1]heptane-2-carbonyl)phenyl)amino)-N-(3-hydroxy-2,6-dimethylphenyl)thiazole-5-carboxamide]				< 50	1000 to 11000	X (100-<1000 fold)
CCNC(=O)N1CC[C@@H](n2ccc(Nc3ncc(C(=O)Nc4c(C)ccc(O)c4C)s3)n2)C1 [BAA-109, 2-[[1-[(3R)-1-(Ethylcarbamoyl)pyrrolidin-3-yl]pyrazol-3-yl]amino]-N-(3-hydroxy-2,6-dimethyl-phenyl)thiazole-5-carboxamide]				50 to 1000	> 11000	>X (100-<1000 fold)
